Source: US9820951B2, “Pulmonary disease treatment and diagnosis based on Arhgef1” (NATIONAL JEWISH HEALTH, A NON-PROFIT ORGANIZATION, priority 2011, dated 2017)

What was measured:
MMP9 [1] = assay: MMP9 activity by zymography in conditioned media of human peripheral blood monocytes cultured on fibronectin; type: cell-based
Protocol: (§1) FIG. 5. TP-induced MMP9 production is only partially dependent on COX activity. A) PEMs were cultured on fibronectin for 24 hours with 5% FCS, washed then treated with different concentration of aspirin or 1.6 μM PTXA2 at for an additional 24 hours without FCS. MMP9 activity was determined by zymography from supernatants of wild type (open) or Arhgef1−/− (filled) macrophages. Activity was normalized to activity generated from cells cultured on fibronectin without treatment. B) MMP9 activity in conditioned media from peripheral blood monocytes cultured as described in panel A. Data represents mean±SE (n=3 independent donors).
Tissue-culture 96-well plates (Costar high binding catalogue number 3590) were coated with 10 μg/ml of murine fibronectin (Molecular Innovations, Nori, Minn.; catalogue number MFBN) or human fibronectin (Molecular Innovations; catalogue number HFBN) in DPBS without Ca^2+ or Mg^2+ (Mediatech, Inc., Manassas, Va.) for 2 h at room temperature. […] PGE2 and TXB2 were measured in conditioned medium by ELISA according to the manufacturer's instructions (ElisaTech, Aurora, Colo.). […]
Peripheral blood monocytes were isolated from whole blood of healthy volunteers using protocols approved by the National Jewish Health Human Subjects Institutional Review Board. […] This procedure consistently yields monocyte purities of >80% as assessed by flow cytometry. […]

Mmp9 [2] = assay: MMP9 activity by gelatin zymography in conditioned media of mouse peritoneal macrophages cultured on fibronectin; type: cell-based; conditions: for maximal inhibition of fibronectin-induced MMP9 production/activity: both wild type and Arhgef1-deficient macrophages, aspirin up to 20 mM, L-161,982, PTA2 1.56 or 6.25 μM, L-655,240 28 μM
Protocol: as §1
FIG. 6. The antioxidant mimetic MnTE-2PyP reduces MMP9 activity in macrophages. PEMs were cultured on fibronectin for 24 hours with 5% FCS, washed then treated with MnTE-2PyP at the indicated concentrations for an additional 24 hours without FCS. MMP9 activity was determined by zymography from supernatants of wild type (open) or Arhgef1−/− (filled) macrophages. Activity was normalized to activity generated from cells cultured on fibronectin without treatment.
FIG. 11. Cyclooxygenase activity but not EP4 receptor signaling is required for MMP9 production by murine macrophages cultured on fibronectin. A, representative MMP9 gelatin zymograms of conditioned media from peritoneal macrophages cultured on either plastic (ctl) or FN and treated with increasing concentrations of aspirin (1.25, 5.0, and 20 mM, respectively). Wild type (+/+) and Arhgef1^−/− (−/−) samples from separate zymograms are shown. Molecular weight standards and respective enzymatic activities of MMP9 and MMP2 are shown. B, quantitation of MMP9 activity as determined by densitometric analysis of zymograms in A. MMP 9 activity is shown in arbitrary units and represents n=6 for both wild type (open bars) and Arhgef1^−/− (black bars) samples. The results are compiled from two independent experiments. The data represent the means±S.E. *, p<0.05 Student's two-tailed t test compared with conditioned media from cells cultured on plastic. #, p<0.05 Student's two-tailed test comparing conditioned media from wild type cells to Arhgef1^−/− cells cultured under identical conditions. $, p<0.05 Student's two-tailed t test compared with conditioned media from cells cultured on fibronectin. C, quantitation of MMP9 activity in conditioned media from macrophages cultured on fibronectin in the presence of the EP4 antagonist L161,982 (10 μM). MMP9 activity was normalized to fibronectin response for each genotype. The results are compiled from two independent experiments with wild type (open bars, n=5) and Arhgef1^−/− (black bars, n=5) samples. The data represent the means±S.E. *, p<0.05 Student's two-tailed t test compared with conditioned media from cells cultured on plastic. #, p<0.05 Student's two-tailed t test compared with conditioned media from cells cultured on fibronectin.
FIG. 12. Thromboxane receptor signaling is necessary for fibronectin-induced MMP9 production by macrophages and is attenuated by Arhgef1. A, representative gelatin zymograms of conditioned media from macrophages cultured on plastic (ctl) or FN and treated with 1.56 or 6.25 μM of the thromboxane receptor antagonist PTA2. Wild type (+/+) and Arhgef1^−/− (−/−) samples from separate zymograms are shown. B, quantitation of MMP9 activity as determined by densitometric analysis of zymograms in A. The results are representative of two independent experiments. C, representative zymograms from conditioned media from macrophages cultured on plastic or fibronectin and treated with 28 μM of the thromboxane receptor antagonist L-655,240. D, quantitation of MMP9 activity as determined by densitometric analysis of zymograms in C. The results are compiled from two independent experiments with n=4 for both wild type (open bars) and Arhgef1^−/− (black bars) samples. […]

CC(=O)Oc1ccccc1C(=O)O [aspirin]
reduction of MMP9 activity (MMP9 [1]; human monocytes on fibronectin, highest aspirin concentration 5 mM, 24 h): 40-50%
maximal inhibition of fibronectin-induced MMP9 production/activity (Mmp9 [2]): 70-75%
reduction of MMP9 activity (Mmp9 [2]; mouse peritoneal macrophages on fibronectin, highest aspirin concentration 5 mM, 24 h): 40-50%

CCCCC[C@@H](O)/C=C/[C@H]1C[C@H]2C[C@@H]([C@@H]1C/C=C\CCCC(=O)O)C2(C)C (relative stereo) [PTXA2, (18-(1alpha,2beta(Z),3alpha(1E,3S*),5alpha))-7-(3-(3-Hydroxy-1-octenyl)-6,6-dimethylbicyclo(3.1.1)hept-2-yl)-5-heptenoic acid]
fibronectin-mediated MMP9 activity (effect in words) (MMP9 [1]; human peripheral blood monocytes, 1.6 μM PTXA2): virtually ablated fibronectin-mediated MMP9 activity
maximal inhibition of fibronectin-induced MMP9 production/activity (Mmp9 [2]): 80-85%
fibronectin-mediated MMP9 activity (effect in words) (Mmp9 [2]; mouse macrophages, wild type and Arhgef1−/−, 1.6 μM PTXA2, 28 μM L-655,240): virtually ablated fibronectin-mediated MMP9 activity
